In publication PMC6332093, “Development of Radiolabeled Membrane Type-1 Matrix Metalloproteinase Activatable Cell Penetrating Peptide Imaging Probes” (Molecules, 2015):

Target: MT1-MMP (Homo sapiens, UniProt P50281)
Test: MT1-MMP sensitivity of ACPP probes (LC-MS)
Format: biochemical
Settings: peptide 0.1 mM, MT1-MMP 0.13 µM (method section: 15 nM), 60 min, 37 °C, 50 mM Tris, 200 mM NaCl, 10 mM CaCl2, 10 µM ZnCl2, pH 7.5, LC-MS; cleavage between Asn and Leu
Description: The peptides ACPP-A, ACPP-B, and ACPP-C (without SHPP functionality) were screened for MT1-MMP sensitivity by incubating the peptides (0.1 mM) with MT1-MMP (0.13 µM) for 60 min. For ACPP-A, a small fraction (<5%) of the peptide was cleaved between the asparagine and leucine residue (Figure 3A). […] ACPP-A analogs (a peptide probe lacking the 5-amino-3-oxapentanoic acid linker residues and its linear analog) were also synthesized and tested for MT1-MMP sensitivity, showing also a low degree of activation (Figure S2). Accordingly, a recent study found a poor response of a genetically encoded MT1-MMP biosensor employing the same substrate. […] Therefore, further in-depth analysis of the MT1-MMP specificity and in vivo characteristics of ACPP-A was not performed.
Figure 3 LC-MS characterization of ACPP-A, ACPP-B, and ACPP-C (0.1 mM) incubated with MT1-MMP (0.13 µM) for 60 min. The left and right graphs show the UV absorbance chromatogram and the mass spectra of the UV-peaks bracketed by the arrowheads, respectively. […]
ACPP-A, ACPP-B, and ACPP-C (0.1 mM) were incubated with 15 nM MT1-MMP in a mixture of 50 mM Tris, 200 mM NaCl, 10 mM CaCl2 and 10 µM ZnCl2 at pH 7.5 at 700 rpm and 37 °C. After 1 h, the enzyme was quenched by the addition of TFA (10% v/v), and the reaction mixture was analyzed by LC-MS.

- fraction of the peptide cleaved by MT1-MMP: < 5%
SMILES: CC(=O)N[C@H](Cc1ccc(O)cc1)C(=O)N[C@H](CCC(=O)O)C(=O)N[C@H](CCC(=O)O)C(=O)N[C@H](CCC(=O)O)C(=O)N[C@H](CCC(=O)O)C(=O)N[C@H](CCC(=O)O)C(=O)N[C@H](CCC(=O)O)C(=O)N[C@H](CCC(=O)O)C(=O)N[C@H](CCC(=O)O)C(=O)N[C@H](CCC(=O)O)C(=O)NCCOCC(=O)N[C@H]1CSSC[C@@H](C(=O)N[C@@H](CC(N)=O)C(=O)N[C@@H](CC(C)C)C(=O)N[C@@H](Cc2ccccc2)C(=O)N[C@H](C(=O)N[C@@H](CC(C)C)C(=O)N[C@@H](CCCCN)C(=O)N[C@@H](CC(=O)O)C(=O)NCCOCC(=O)N[C@H](CCCNC(=N)N)C(=O)N[C@H](CCCNC(=N)N)C(=O)N[C@H](CCCNC(=N)N)C(=O)N[C@H](CCCNC(=N)N)C(=O)N[C@H](CCCNC(=N)N)C(=O)N[C@H](CCCNC(=N)N)C(=O)N[C@H](CCCNC(=N)N)C(=O)N[C@H](CCCNC(=N)N)C(=O)N[C@H](CCCNC(=N)N)C(=O)N[C@H](CCNC(=O)CN2CCN(CC(=O)O)CCN(CC(=O)O)CCN(CC(=O)O)CC2)C(N)=O)C(C)C)NC(=O)[C@H](CO)NC(=O)[C@H](CCC(=O)O)NC(=O)[C@H](CCCCN)NC(=O)[C@@H]2CCCN2C1=O [ACPP-A, Ac-y-e9-X-C*PKESC*NLFVLKD-X-r9-dab(DOTA)-NH2]
